# Test results taken from paper PMC8623179, “Design and Microwave Synthesis of New (5Z) 5-Arylidene-2-thioxo-1,3-thiazolinidin-4-one and (5Z) 2-Amino-5-arylidene-1,3-thiazol-4(5H)-one as New Inhibitors of Protein Kinase DYRK1A” (Pharmaceuticals, 2021).
# Where two headings read alike, the source gives them in different places.
# Tests used:
# DYRK1A = molecular target: T1, DYRK1A (Rattus norvegicus, UniProt Q63470); assay: DYRK1A kinase assay; format: biochemical; settings: 15 μM ATP
# T1 construct: GST; made in house; host or cells: Escherichia coli
# Protocol: (§1) The twenty-two (5Z) 5-arylidene-2-thioxo-1,3-thiazolidin-4-ones 3a–v and the twenty-four (5Z) 2-amino-5-arylidene-1,3-thiazolidin-4(5H)-ones 5a–x were evaluated against four different and representative in vitro kinase assays DYRK1A (dual specificity tyrosine phosphorylation regulated kinase), CK1 δ/e (caseine kinase 1), CDK5/p25 (cyclin dependant kinase), and GSK3 α/β (glycogen synthase kinase 3) to evaluate their inhibition potency. […] All the compounds were initially tested at a 10 μM concentration.
# After 30-min incubation at 30 °C, the reaction was stopped by harvesting, using a FilterMate harvester (Packard), onto P81 phospho-cellulose papers (GE Healthcare, Chicago, IL, USA) which were washed in 1% phosphoric acid. Scintillation fluid was added and the radioactivity measured in a Packard counter. Blank values were subtracted and activities calculated as pmoles of phosphate incorporated for the 30-min incubation. The activities were expressed in % of the maximal activity, i.e., in the absence of inhibitors. Controls were performed with appropriate dilutions of DMSO. […]
# Casein kinase 1 (CK1δ/ε) = assay: CK1δ/ε kinase assay; format: biochemical, porcine; settings: 15 μM ATP, read-out: IC50 CK1
# Protocol: as §1
# (§2) After 30-min incubation at 30 °C, the reaction was stopped by harvesting, using a FilterMate harvester (Packard), onto P81 phospho-cellulose papers (GE Healthcare, Chicago, IL, USA) which were washed in 1% phosphoric acid. Scintillation fluid was added and the radioactivity measured in a Packard counter. Blank values were subtracted and activities calculated as pmoles of phosphate incorporated for the 30-min incubation. The activities were expressed in % of the maximal activity, i.e., in the absence of inhibitors. Controls were performed with appropriate dilutions of DMSO.
# Casein kinase 1 (CK1δ/ε) (porcine brain, native) was assayed with 0.67 µg of CKS peptide ([…]pSAYSITA), a CK1 specific substrate obtained from Millegen (Labege, France).
# CDK5/p25 = molecular target: T2, CDK5/p25 (Homo sapiens, UniProt Q00535); assay: CDK5/p25 kinase assay; format: biochemical; settings: 15 μM ATP
# T2 construct: made in house
# Protocol: as §1, §2
# CDK5/p25 (human, recombinant) was prepared as previously described. […] ATP (3000 Ci/mmol; 10 mCi/mL) in a final volume of 30 μL. After 30-min incubation at 30 °C, 25 μL aliquots of supernatant were spotted onto 2.5 × 3 cm pieces of Whatman P81 phospho-cellulose paper, and, 20 s later, the filters were washed five times (for at least 5 min each time) in a solution of 10 mL phosphoric acid/litter of water. The wet filters were counted in the presence of 1 mL ACS (Amersham, UK) scintillation fluid.
# GSK-3α/β = GSK-3α/β kinase assay; format: biochemical, porcine; settings: 15 μM ATP, read-out: IC50 GSK3α/β
# Protocol: as §1, §2
# GSK-3α/β (porcine brain, native) was assayed, as described for CDK5/p25 but in Buffer A and using a GSK-3 specific substrate (GS-1: […]pEDEEE) (pS stands for phosphorylated serine). GS-1 was synthesized by Millegen (Labege, France).
# T2 sequence (Q00535 whole entry): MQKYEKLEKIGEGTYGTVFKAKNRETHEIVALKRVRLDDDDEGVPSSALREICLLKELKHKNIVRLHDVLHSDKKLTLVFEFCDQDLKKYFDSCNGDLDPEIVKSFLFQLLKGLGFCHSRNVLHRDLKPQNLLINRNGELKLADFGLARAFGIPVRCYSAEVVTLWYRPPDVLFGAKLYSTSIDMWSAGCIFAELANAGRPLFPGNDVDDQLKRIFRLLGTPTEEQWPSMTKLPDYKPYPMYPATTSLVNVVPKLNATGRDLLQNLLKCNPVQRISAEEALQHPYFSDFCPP
# T2 sequence (Q15078 99-307 partner limits assumed): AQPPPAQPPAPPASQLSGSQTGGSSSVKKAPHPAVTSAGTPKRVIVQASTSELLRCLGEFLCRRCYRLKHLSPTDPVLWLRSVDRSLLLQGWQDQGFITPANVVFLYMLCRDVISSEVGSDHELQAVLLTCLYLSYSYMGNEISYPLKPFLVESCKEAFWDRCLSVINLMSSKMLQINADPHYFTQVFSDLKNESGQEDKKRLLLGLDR
SMILES,IC50 (DYRK1A; Table 5),IC50 (Casein kinase 1 (CK1δ/ε); Table 5),IC50 (CDK5/p25; Table 5),IC50 (GSK-3α/β; Table 5),IC50 (DYRK1A; Table 4),IC50 (Casein kinase 1 (CK1δ/ε); Table 4),IC50 (CDK5/p25; Table 4),IC50 (GSK-3α/β; Table 4)
"O=C1NC(=S)S/C1=C\c1ccc2c(c1)OCCCO2 [Compound 3n, (5Z)-5-(3,4-Dihydro-2H-1,5-benzodioxepine-7-yl)methylene-2-thioxo-1,3-thiazolidin-4-one]",,,,,> 10 µM,> 10 µM,> 10 µM,> 10 µM
"O=C1NC(=S)S/C1=C\c1ccc(O)cc1 [Compound 3e, (5Z)-5-(4-Hydroxybenzylidene)-2-thioxo-1,3-thiazolidin-4-one]",,,,,0.028 µM,> 10 µM,> 10 µM,> 10 µM
"O=C(NN1C(=O)/C(=C/c2ccc3c(c2)OCO3)SC1=S)c1ccccc1 [Compound 3p, (5Z)-N-(5-Benzo[1,3]dioxol-5-ylmethylene-4-oxo-2-thioxo-thiazolidin-3-yl)-benzamide]",,,,,> 10 µM,> 10 µM,> 10 µM,> 10 µM
"O=C1NC(=S)S/C1=C\c1ccc2c(c1)CCCO2 [Compound 3m, (5Z)-5-(Chroman-6-yl)methylene-2-thioxo-1,3-thiazolidin-4-one]",,,,,6.5 µM,> 10 µM,> 10 µM,> 10 µM
"O=C(Cc1ccccc1)NN1C(=O)/C(=C/c2ccc3c(c2)OCO3)SC1=S [Compound 3q, (5Z)-N-(5-Benzo[1,3]dioxol-5-ylmethylene-4-oxo-2-thioxo-thiazolidin-3-yl)-2-phenyl-acetamide]",,,,,> 10 µM,> 10 µM,> 10 µM,> 10 µM
COc1ccc(C(=O)NN2C(=O)/C(=C/c3ccc4c(c3)OCO4)SC2=S)cc1 [Compound 3s],,,,,> 10 µM,> 10 µM,> 10 µM,> 10 µM
"O=C(CCc1ccccc1)NN1C(=O)/C(=C/c2ccc3c(c2)OCO3)SC1=S [Compound 3r, (5Z)-N-(5-Benzo[1,3]dioxol-5-ylmethylene-4-oxo-2-thioxo-thiazolidin-3-yl)-3-phenyl-propionamide]",,,,,> 10 µM,> 10 µM,> 10 µM,> 10 µM
"O=C(O)CN1C(=O)/C(=C/c2ccc3c(c2)OCO3)SC1=S [Compound 3u, (5Z)-(5-Benzo[1,3]dioxol-5-ylmethylene-4-oxo-2-thioxo-thiazolidin-3-yl)-acetic acid]",,,,,0.16 µM,> 10 µM,> 10 µM,> 10 µM
"O=C1NC(=S)S/C1=C\c1cccc(-c2ccc3c(c2)OCO3)n1 [Compound 3h, (5Z)-5-{[6-(1,3-Benzodioxol-5-yl)pyridin-2-yl]methylene}-2-thioxo-1,3-thiazolidin-4-one]",,,,,0.35 µM,> 10 µM,> 10 µM,1.6 µM
"NN1C(=O)/C(=C/c2ccc3c(c2)OCO3)SC1=S [Compound 3o, (5Z)-3-Amino-5-benzo[1,3]dioxol-5-ylmethylene-2-thioxo-thiazolidin-4-one]",,,,,> 10 µM,> 10 µM,> 10 µM,> 10 µM

# Results, then the molecule that gave them:
IC50 (DYRK1A; Table 5),IC50 (Casein kinase 1 (CK1δ/ε); Table 5),IC50 (CDK5/p25; Table 5),IC50 (GSK-3α/β; Table 5),IC50 (DYRK1A; Table 4),IC50 (Casein kinase 1 (CK1δ/ε); Table 4),IC50 (CDK5/p25; Table 4),IC50 (GSK-3α/β; Table 4),SMILES
> 10 µM,> 10 µM,> 10 µM,> 10 µM,,,,,"O=C1N=C(Nc2ccncc2)S/C1=C\c1ccc2c(c1)OCO2 [Compound 5t, (5Z)-5-Benzo[1,3]dioxol-5-ylmethylene-2-(pyridin-4-yl)amino-1,3-thiazol-4(5H)-one]"
≥ 10 µM,> 10 µM,> 10 µM,> 10 µM,,,,,"O=C1N=C(N2CCN(Cc3ccc4c(c3)OCO4)CC2)S/C1=C\c1ccc2c(c1)OCO2 [Compound 5j, (5Z)-5-(1,3-Benzodioxol-5-ylmethylene)-2-[1-(1,3-benzodioxol-5-ylmethyl)piperazin-1-yl]-1,3-thiazol-4(5H)-one]"
1.8 µM,> 10 µM,> 10 µM,> 10 µM,,,,,"O=C1N=C(N2CCN(c3ncccn3)CC2)S/C1=C\c1ccc2c(c1)OCO2 [Compound 5l, (5Z)-5-(1,3-Benzodioxol-5-ylmethylene)-2-[4-(pyrimidin-2-yl)piperazin-1-yl]-1,3-thiazol-4(5H)-one]"
> 10 µM,> 10 µM,> 10 µM,> 10 µM,,,,,"COc1ccc(/C=C2\SC(N3CCOCC3)=NC2=O)cc1OC [Compound 5b, (5Z)-5-(3,4-Dimethoxybenzylidene)-2-(morpholin-1-yl)-1,3-thiazol-4(5H)-one]"
0.4 µM,> 10 µM,> 10 µM,≥ 10 µM,,,,,"O=C1N=C(N2CCSCC2)S/C1=C\c1ccc2c(c1)OCO2 [Compound 5g, (5Z)-5-(1,3-Benzodioxol-5-ylmethylene)-2-(thiomorpholin-1-yl)-1,3-thiazol-4(5H)-one]"
2.3 µM,> 10 µM,> 10 µM,> 10 µM,,,,,"CN1CCN(C2=NC(=O)/C(=C/c3ccc4c(c3)OCO4)S2)CC1 [Compound 5f, (5Z)-5-(1,3-Benzodioxol-5-ylmethylene)-2-(4-N-methylpiperazin-1-yl)-1,3-thiazol-4(5H)-one]"
0.17 µM,> 10 µM,> 10 µM,3.7 µM,,,,,"O=C1N=C(N2CCSCC2)S/C1=C\c1ccc2c(c1)OCCO2 [Compound 5q, (5Z)-5-(2,3-Dihydro-1,4-benzodioxin-6-ylmethylene)-2-(thiomorpholin-4-yl)-1,3-thiazol-4(5H)-one]"
> 10 µM,> 10 µM,> 10 µM,> 10 µM,,,,,"COc1ccc(/C=C2\SC(N3CCSCC3)=NC2=O)cc1OC [Compound 5h, (5Z)-5-(3,4-Dimethoxybenzylidene)-2-(thiomorpholin-1-yl)-1,3-thiazol-4(5H)-one]"
0.033 µM,> 10 µM,> 10 µM,≤ 10 µM,,,,,"O=C1N=C(Nc2ccccn2)S/C1=C\c1ccc2c(c1)OCO2 [Compound 5s, (5Z)-5-Benzo[1,3]dioxol-5-ylmethylene-2-(pyridin-2-yl)amino-1,3-thiazol-4(5H)-one]"
1.8 µM,> 10 µM,> 10 µM,≤ 8.8 µM,,,,,"O=C1N=C(N2CCNCC2)S/C1=C\c1ccc2c(c1)OCO2 [Compound 5e, (5Z)-5-(1,3-Benzodioxol-5-ylmethylene)-2-(piperazin-1-yl)-1,3-thiazol-4(5H)-one]"
0.053 µM,> 10 µM,> 10 µM,7.4 µM,,,,,"O=C1N=C(N2CCCCC2)S/C1=C\c1ccc2c(c1)OCO2 [Compound 5i, (5Z)-5-(1,3-Benzodioxol-5-ylmethylene)-2-(piperidin-1-yl)-1,3-thiazol-4(5H)-one]"
0.9 µM,> 10 µM,> 10 µM,> 10 µM,,,,,"COc1ccc(NC2=NC(=O)/C(=C/c3ccc4c(c3)OCO4)S2)cc1 [Compound 5u, (5Z)-5-Benzo[1,3]dioxol-5-ylmethylene-2-(4-methoxy-phenylamino)-1,3-thiazol-4(5H)-one]"
0.07 µM,> 10 µM,> 10 µM,5.3 µM,,,,,"O=C1N=C(N2CCSCC2)S/C1=C\c1ccc2c(c1)CCO2 [Compound 5n, (5Z)-5-(2,3-Dihydro-benzofuran-5-ylmethylene)-2-(thiomorpholin-4-yl)-1,3-thiazol-4(5H)-one]"
1.6 µM,> 10 µM,> 10 µM,> 10 µM,,,,,"O=C1N=C(N2CCN(c3ccc(F)cc3)CC2)S/C1=C\c1ccc2c(c1)OCO2 [Compound 5k, (5Z)-5-(1,3-Benzodioxol-5-ylmethylene)-2-[1-(4-fluorophenyl)piperazin-1-yl]-1,3-thiazol-4(5H)-one]"
0.63 µM,> 10 µM,> 10 µM,7.4 µM,,,,,"O=C1N=C(N2CCOCC2)S/C1=C\c1ccc2c(c1)OCO2 [Compound 5a, (5Z)-5-(1,3-Benzodioxol-5-ylmethylene)-2-(morpholin-1-yl)-1,3-thiazol-4(5H)-one]"
0.09 µM,≥ 10 µM,> 10 µM,4.7 µM,,,,,"O=C1N=C(N2CCCCC2)S/C1=C\c1ccc2c(c1)CCO2 [Compound 5o, (5Z)-5-(2,3-Dihydro-benzofuran-5-ylmethylene)-2-(piperidin-1-yl)-1,3-thiazol-4(5H)-one]"
